Where a name gives a salt, the structure may show the parent alone.
Key:
[1] = tested on: human colon carcinoma cell line, SW-480; assay: Sulforhodamine B (SRB) tumor cell growth inhibition assay; assay type: cell-based; settings: SW480, 144 h, SW-480 cell line, six days continuous exposure
Experimental: The compound of Example 1 was assayed for its growth inhibitory activity on the human colon carcinoma cell line, SW-480 obtained from ATCC (Rockville, Md.), to ascertain the degree of growth inhibition. Growth inhibition of this cell line is indicative of a benefit on precancerous lesions and neoplasms. The cell line and growth assay employed for such experiments are well characterized, and are used to evaluate the anti-neoplastic properties of NSAIDs. The assay is used by the United States National Cancer Institute in its screening program for new anti-cancer drugs.
Drug stock solutions were made in 100% DMSO and were then diluted with RPMI media for cell culture testing. All drug solutions were prepared fresh on the day of testing. The cultured cells were obtained at passage #99 and grown in RPMI media supplemented with 5% fetal calf serum, and 2 mM glutamine, 100 U/ml penicillin, […] streptomycin, and 0.25 μg/ml amphotericin. The cultures were maintained in a humidified atmosphere of 95% air and 5% CO2 at 37° C. […]
Tumor cell growth inhibition was assessed using the Sulforhodamine B (SRB) protein binding assay. […] The dye was then solubilized, and the optical density of the resulting solution was determined on a 96-well plate reader. […]
For each experiment, an IC50 value was determined and used for comparative purposes. […]

[2] = biological target: T1, purified cyclooxygenase Type I (Ovis aries, UniProt P05979); assay: Cyclooxygenase (COX) inhibition, purified enzyme; assay type: biochemical; settings: purified COX from ram seminal vesicles
T1 construct: The COX was purified from ram seminal vesicles; from tissue; host or cells: ram seminal vesicles
T1 sequence (P05979 25-600): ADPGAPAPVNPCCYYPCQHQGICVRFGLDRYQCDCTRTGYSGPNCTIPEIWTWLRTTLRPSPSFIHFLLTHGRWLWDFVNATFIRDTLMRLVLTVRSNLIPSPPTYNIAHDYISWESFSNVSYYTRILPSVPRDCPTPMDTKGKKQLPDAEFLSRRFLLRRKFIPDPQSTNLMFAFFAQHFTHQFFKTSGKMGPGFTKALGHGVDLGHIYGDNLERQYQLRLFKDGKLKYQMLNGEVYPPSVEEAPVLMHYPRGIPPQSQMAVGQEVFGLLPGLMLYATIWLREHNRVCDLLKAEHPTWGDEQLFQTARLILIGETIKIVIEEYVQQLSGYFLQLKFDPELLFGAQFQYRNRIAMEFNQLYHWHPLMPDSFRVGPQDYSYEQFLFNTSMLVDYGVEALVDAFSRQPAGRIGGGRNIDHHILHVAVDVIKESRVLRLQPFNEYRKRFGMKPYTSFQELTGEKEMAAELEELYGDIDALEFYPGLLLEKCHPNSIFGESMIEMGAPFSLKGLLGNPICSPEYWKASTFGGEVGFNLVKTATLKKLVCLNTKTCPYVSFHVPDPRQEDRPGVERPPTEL
Experimental: COX catalyzes the formation of prostaglandins and thromboxane by the oxidative metabolism of arachidonic acid. The compound of Example 1 of this invention, as well as a positive control, (sulindac sulfide) were evaluated to determine whether they inhibited purified cyclooxygenase Type I (see Table 3 below).
The compounds of this invention were evaluated for inhibitory effects on purified COX. The COX was purified from ram seminal vesicles, as described by Boopathy, R. and Balasubramanian, J., 239:371-377, 1988. COX activity was assayed as described by Evans, A. T., et al., “Actions of Cannabis Constituents on Enzymes Of Arachidonate Metabolism Anti-Inflammatory Potential,” Biochem. Pharmacol., 36:2035-2037, 1987. Briefly, purified COX was incubated with arachidonic acid (100 μM) for 2.0 min at 37° C. in the presence or absence of test compounds. The assay was terminated by the addition of TCA, and COX activity was determined by absorbance at 530 nm.

[3] = tested on: SW-480 colon adenocarcinoma cells; assay: Apoptosis by DNA fragmentation (Cell Death Detection ELISA plus); assay type: cell-based, human; settings: for DNA Fragmentation FS (100 μM): fold stimulation FS=ODmax/ODveh; for DNA Fragmentation FS (100 μM) / EC50: SW-480 cells, 48 hrs; for Apoptosis Level (Mean OD Value ± SD): DNA fragmentation, SW-480
Experimental: Apoptosis was also measured based on the amount of fragmented DNA contained in cell lysates. Briefly, SW-480 colon adenocarcinoma cells were plated in 96-well microtitre plates (“MTP”) at a density of 10 K cells/well in 180 μl and were incubated for 24 hrs. Cells were then treated with 20 μl aliquots of appropriately diluted compound, and allowed to incubate for an additional 48 hrs.
After the incubation, samples were prepared according to the following steps. The MTP was centrifuged (15 min., 1000 rpm) and the supernatant was carefully removed by fast inversion of the MTP. The cell pellets in each well were resuspended in 200 μl lysis buffer and incubated for 45 min. at room temperature to lyse the cells. The lysates were then centrifuged (15 min., 1000 rpm) and 20 μl aliquots of the supernatant (=cytoplasmic fraction) were transferred into the streptavidin coated MTP for analysis. Care was taken not to shake the lysed pellets in the MTP (=cell nucleii containing high molecular weight, unfragmented DNA). Samples were analyzed immediately, because storage at 4C or −20C reduces the ELISA-signals.
Samples were then processed according to a DNA fragmentation assay protocol, and dose-response curves were generated based on optical density readings. Quantification of DNA was done by a commercially available photometric enzyme-immunoassay manufactured by Mannheim-Boehringer under the name “Cell Death Detection ELISA^plus”. The assay is based on a quantitative sandwich-enzyme-immunoassay-principle using mouse monoclonal antibodies directed against DNA and histones, respectively. This allows the specific determination of mono and oligonucleosomes in the cytoplasmatic fraction of cell lysates. In brief, the assay procedure is as follows. The sample (cell-lysate, serum, culture-supematant etc.) is placed into a streptavidin-coated MTP. Subsequently, a mixture of anti-histone-biotin and anti-DNA-POD is followed by incubation for 2 hours. During the incubation period, the anti-histone antibody binds to the histone-component of the nucleosomes and simultaneously fixes the immunocomplex to the streptavidin-coated MTP via its biotinylation. Additionally, the anti-DNA-POD antibody reacts with the DNA component of the nucleosomes. After removal of unbound antibodies by a washing step, the amount of nucleosomes is quantified by the POD retained in the immunocomplex. POD is determined photometrically with ABTS® (2,2′-Azino-di[3-ethylbenzthiazolin-sulfonat])* as substrate.
Fold stimulation (FS=ODmax/ODveh), an indicator of apoptotic response, was determined for each compound tested. EC50 values were determined either specifically by data analysis software, or by estimates based on the effective concentration range of each compound (ECR=min. effective dose-min. dose to peak effect). These FS and EC50 values for the tested compounds are listed above in Table 4.
In addition, using the DNA fragmentation test above, a dose response for the compound of Example 1 was obtained.

[4] = tested on: HT-29 human colon carcinoma cells; assay: Apoptosis by morphology (acridine orange/ethidium bromide fluorescent microscopy); assay type: cell-based; settings: HT-29 cells
Experimental: Apoptosis was measured using an assay of cell death based on morphological characteristics of apoptotic cells (i.e., condensed chromatin). Drug preparation and cell culture conditions were the same as for the SRB assay described above, except that HT-29 human colon carcinoma cells were used. Confluent cultures were established in 12.5 cm^2 flasks by plating 0.5×10^6 cells/flask. The cultures were assayed for apoptosis by fluorescent microscopy following labeling with acridine orange and ethidium bromide. Floating and attached cells were collected by trypsinization and washed three times in PBS. One ml aliquots were centrifuged (3 g). The pellet was resuspended in 25 μl media and 1 μl of a dye mixture containing 100 μg/ml acridine orange and 100 μg/ml ethidium bromide prepared in PBS and mixed gently. Ten μl of the mixture was placed on a microscope slide and covered with a 22 mm^2 coverslip, was examined with 40x dry objectives under epillumination by filter combination.
An observer blinded in regard to the identity of the samples scored at least 100 cells per sample. Apoptotic cells were identified by nuclear condensation of chromatin stained by the acridine orange or ethidium bromide.

## CC1=C(CC(=O)NCc2ccccc2)c2cc(F)ccc2/C1=C\c1ccncc1 [Example 1, (Z)-5-Fluoro-2-Methyl-(4-Pyridinylidene)-3-(N-Benzyl)-Indenylacetamide]
[1]
  IC50: 0.724 µM
[2]
  inhibition at 100 µM: < 25%
[3]
  DNA Fragmentation FS (100 μM): 4.2
[3]; Homo sapiens, SW480
  EC50: 29 µM
[3]; dose 0.5 μM
  Apoptosis Level (Mean OD Value ± SD): 0.186 ± 0.008
[3]; dose 1.0 μM
  Apoptosis Level (Mean OD Value ± SD): 0.207 ± 0.061
[3]; dose 5.0 μM
  Apoptosis Level (Mean OD Value ± SD): 0.208 ± 0.073
[3]; dose 10 μM
  Apoptosis Level (Mean OD Value ± SD): 0.296 ± 0.050
[3]; dose 50 μM
  Apoptosis Level (Mean OD Value ± SD): 0.500 ± 0.048
[3]; dose 100 μM
  Apoptosis Level (Mean OD Value ± SD): 0.633 ± 0.053
[3]; dose 500 μM
  Apoptosis Level (Mean OD Value ± SD): 0.659 ± 0.012
[4]
  Morphology % Apoptotic Cells (1 μM): 88%

## CC1=C(CC(=O)NCc2ccccc2)c2cc(F)ccc2/C1=C\c1cccnc1 [Example 2, (Z)-5-Fluoro-2-Methyl-(3-Pyridinylidene)-3-(N-Benzyl)-Indenylacetamide]
[3]
  DNA Fragmentation FS (100 μM): 5.4

## CC1=C(CC(=O)NCc2ccccc2)c2cc(F)ccc2/C1=C\c1ccccn1 [Example 3, (Z)-5-Fluoro-2-Methyl-(2-Pyridinylidene)-3-(N-Benzyl)-Indenylacetamide]
[3]
  DNA Fragmentation FS (100 μM): 8.5

## CC1=C(CC(=O)NCc2ccccc2)c2cc(F)ccc2/C1=C\c1ccnc2ccccc12 [Example 4, (Z)-5-Fluoro-2-Methyl-(4-Quinolinylidene)-3-(N-Benzyl)-Indenylacetamide]
[3]
  DNA Fragmentation FS (100 μM): 3.9

## CC1=C(CC(=O)NCc2ccccc2)c2cc(F)ccc2/C1=C\c1ccncc1 [Example 38, (Z)-5-Fluoro-2-Methyl-(4-Pyridylidene)-3-(N-Benzyl) Indenylacetamide Hydrochloride]
[3]
  EC50: 15 µM
